Where a name gives a salt, the structure may show the parent alone.
Experiments:
[1] = Stability to light (fluorescent light at 25° C., ICH light stability chamber, residual proportion by HPLC); format: physicochemical; conditions: for residual proportion of the initial level of active ingredient: fluorescent light, 25° C.; for photostability (in words): compared with sibutramine hydrochloride monohydrate
Method: (§1) The stability of an active ingredient used in a pharmaceutical composition to heat and light is a very important physical property during formulation into tablets and capsules and long-term storage. […] In detail, each compound was stored at 60° C. After 1, 2 and 4 weeks, the residual proportion of the initial level of an active ingredient was measured by high performance liquid chromatography (HPLC). Also, fluorescent light was radiated at 25° C. using a light stability test chamber suitable for the ICH guideline, and after 1, 2 and 4 weeks, the residual proportion of the initial level of an active ingredient was measured by HPLC.

[2] = Solubility evaluation in distilled water and at several pH values; conditions: 37 °C, thermodynamic from solid
[3] = Stability to heat (storage at 60° C., residual proportion by HPLC); format: physicochemical; conditions: for residual proportion of the initial level of active ingredient: 60° C.; for heat stability (in words): compared with sibutramine hydrochloride monohydrate
Method: as §1

[4] = Non-hygroscopicity evaluation (water content by Karl-Fisher titrator after exposure to humid air); format: physicochemical; conditions: for moisture absorption (in words): humid atmosphere of 95% relative humidity
Method: Then, the water content of the samples was measured using a Karl-Fisher titrator. In Table 4, the water content of an active ingredient is expressed as a percentage of water content by weight (weight %).

rat = conditions: cited from earlier work
mouse = conditions: cited from earlier work
[5] = 75% relative humidity at 25° C., 3 days
[6] = 95% relative humidity at 25° C., 1 week

Compound	residual proportion of the initial level of active ingredient ([1]; 1 week)	residual proportion of the initial level of active ingredient ([1]; 2 weeks)	residual proportion of the initial level of active ingredient ([1]; Initial)	residual proportion of the initial level of active ingredient ([3]; 1 week)	residual proportion of the initial level of active ingredient ([3]; 2 weeks)	residual proportion of the initial level of active ingredient ([3]; 4 weeks)	residual proportion of the initial level of active ingredient ([3]; Initial)	photostability (in words) [1]	residual proportion of the initial level of active ingredient ([1]; 4 weeks)	heat stability (in words) [3]	water content (weight %) [4, 5] [%]	water content (weight %) [4, 6] [%]	water content (weight %) ([4]; Initial) [%]	moisture absorption (in words) [4]	further results
CC(C)CC(N(C)C)C1(c2ccc(Cl)cc2)CCC1 (centres unmarked) [Sibutramine HCl monohydrate, Sibutramine hydrochloride monohydrate, reference compound]	1.000	0.999	1.000	1.000	0.999	0.999	1.000	–	–	–	–	–	–	–	residual proportion of the initial level of active ingredient ([1]; 4 weeks, hydrochloride monohydrate): 0.998; solubility ([2]; pH 1.2, simulated gastric fluid): 13.4 mg/mL; solubility ([2]; pH 4, aqueous buffer): 9.58 mg/mL; solubility ([2]; pH 5.3, aqueous buffer): 6.58 mg/mL; solubility ([2]; pH 6.8, aqueous buffer): 23.1 mg/mL; solubility ([2]; pH 7.4, aqueous buffer): 9.2 mg/mL; solubility ([2]; distilled water, water): 26.2 mg/mL; water content (weight %) ([4]; 75% relative humidity at 25° C., 3 days, hydrochloride monohydrate): 5.49%; water content (weight %) ([4]; 95% relative humidity at 25° C., 1 week, hydrochloride monohydrate): 5.5%; water content (weight %) ([4]; Initial, hydrochloride monohydrate): 5.49%
Cl [HCl, hydrochloric acid]	–	–	–	–	–	–	–	–	–	–	–	–	–	–	LD50 in rat (oral) (rat): 900 mg/kg; LD50 in mouse (i.p.) (mouse): 40 mg/kg
CC(C)CC(N(C)C)C1(c2ccc(Cl)cc2)CCC1 (centres unmarked) [Sibutramine oxalate, sibutramine oxalate]	1.000	0.999	1.000	1.000	0.999	0.999	1.000	equal to those of sibutramine hydrochloride monohydrate	0.999	equal to those of sibutramine hydrochloride monohydrate	0.03	0.02	0.02	did not absorb moisture	–
CC(C)CC(N(C)C)C1(c2ccc(Cl)cc2)CCC1 (centres unmarked) [Sibutramine malonate, sibutramine malonate]	1.000	0.999	1.000	1.000	0.999	0.999	1.000	equal to those of sibutramine hydrochloride monohydrate	0.999	equal to those of sibutramine hydrochloride monohydrate	0.02	0.03	0.03	did not absorb moisture	–
